Results reported in patent publication US4162326A, “Insect control agents” (Stauffer Chemical Company, priority 1978, dated 1979).

Test system: milkweed bug, Oncopeltus fasciatus (Dallas)
Assay: anti-juvenile hormone activity and insecticidal activity against the milkweed bug (treated filter paper, second-instar nymphs)
Format: in vivo
Conditions: for LD50 (ED50 or LD50; compounds without asterisk, functioned as insecticides): insecticidal activity, mortality to at least 50% of the insects; for LD50 (ED50 or LD50; compounds without asterisk, functioned as insecticides) / ED50 (ED50 or LD50; compounds marked with asterisk, functioned as anti-juvenile hormone): second-instar nymphs, treated filter paper, 70° F, 3 to 4 weeks; for type of action (anti-juvenile hormone or general insecticide): statement in words on Table II; for ED50 (ED50 or LD50; compounds marked with asterisk, functioned as anti-juvenile hormone): anti-juvenile hormone activity (asterisk)
Protocol: Compounds were tested for anti-juvenile hormone activity and insecticidal activity against the milkweed bug, Oncopeltus fasciatus (Dallas) as follows: The test compounds were diluted in acetone and impregnated into a filter paper disc by applying 0.6 milliliters and permitting the solvent to completely evaporate. Ten second-instar nymphs of Oncopeltus fasciatus (Dallas) were placed in a petri dish with the treated filter paper. The nymphs were supplied with milkweed seeds and water (by soaking dental cotton in a 4-dram vial cap). All petri dishes were stored at 70° F. The compounds were tested at concentrations ranging from 10 μg/cm^2 of filter paper downwards. The insecticidal or anti-juvenile hormone effect was determined when control insects had developed into normal adults, normally 3 to 4 weeks. The asterisk in the Table signifies that the indicated compound functioned as an anti-juvenilehormone. Compounds not marked with an asterisk functioned as insecticides,resulting in mortality to at least 50% of the insects at the indicated level.

Row | SMILES | LD50 (ED50 or LD50; compounds without asterisk, functioned as insecticides) [ug/cm^2] | type of action (anti-juvenile hormone or general insecticide) | ED50 (ED50 or LD50; compounds marked with asterisk, functioned as anti-juvenile hormone) [ug/cm^2]
1 | C#CCOc1ccc2c(c1)OC(C)(C)C=C2 [Compound 1] | 2 | function as general insecticides | 
2 | CC#CCOc1ccc2c(c1)OC(C)(C)C=C2 [Compound 2] |  | function as anti-juvenile hormones | 0.5
3 | C=CCOc1ccc2c(c1)OC(C)(C)C=C2 [Compound 3, 2,2-dimethyl-7-allyloxy-3-chromene] |  | function as anti-juvenile hormones | 2
4 | C#CCOc1cc2c(cc1OC)OC(C)(C)C=C2 [Compound 4] | 6 | function as general insecticides | 
5 | C=CCOc1cc2c(cc1OC)OC(C)(C)C=C2 [Compound 5] | 8 | function as general insecticides | 
6 | C#CCOc1cc2c(cc1OC)C=CC(C)(C)O2 [Compound 6] |  | function as anti-juvenile hormones | 1
7 | C=CCOc1cc2c(cc1OC)C=CC(C)(C)O2 [Compound 7] |  | function as anti-juvenile hormones | 0.5
